In ChEMBL document CHEMBL4346757, “Synthesis and biological evaluation of 7-methoxy-1-(3,4,5-trimethoxyphenyl)-4,5-dihydro-2H-benzo[e]indazoles as new colchicine site inhibitors” (Bioorg Med Chem Lett, 2019):

How the values were obtained:
Format in all cases: functional
BT-549 = assay: Cytotoxicity against human BT549 cells assessed as growth inhibition after 48 hrs by SRB assay; details: BT-549, 48 h
UACC-62 = assay: Growth inhibition of human UACC62 cells assessed as cell growth at 0.01 uM after 48 hrs by SRB assay relative to control; details: UACC-62, 48 h, read-out: Activity
SF-539 = assay: Growth inhibition of human SF539 cells assessed as cell growth at 1 uM after 48 hrs by SRB assay relative to control; details: SF-539, 48 h, read-out: Activity
T47D = assay: Growth inhibition of human T47D cells assessed as cell growth at 0.01 uM after 48 hrs by SRB assay relative to control; details: read-out: Activity
MOLT-4 [1] = assay: Growth inhibition of human MOLT4 cells assessed as cell growth at 0.1 uM after 48 hrs by SRB assay relative to control; details: MOLT-4, 48 h, read-out: Activity
MOLT-4 [2] = assay: Growth inhibition of human MOLT4 cells assessed as cell growth at 0.01 uM after 48 hrs by SRB assay relative to control; details: MOLT-4, 48 h, read-out: Activity
HT-29 = assay: Growth inhibition of human HT-29 cells assessed as cell growth at 0.01 uM after 48 hrs by SRB assay relative to control; details: HT-29, 48 h, read-out: Activity
SK-MEL-2 [3] = assay: Growth inhibition of human SK-MEL-2 cells assessed as cell growth at 1 uM after 48 hrs by SRB assay relative to control; details: SK-MEL-2, 48 h, read-out: Activity
Malme-3M [4] = assay: Growth inhibition of human MALME-3M cells assessed as cell growth at 10 uM after 48 hrs by SRB assay relative to control; details: read-out: Activity
SF-268 = assay: Growth inhibition of human SF268 cells assessed as cell growth at 1 uM after 48 hrs by SRB assay relative to control; details: SF-268, 48 h, read-out: Activity
MDA-MB-435 = assay: Growth inhibition of human MDA-MB-435 cells assessed as cell growth at 0.1 uM after 48 hrs by SRB assay relative to control; details: MDA-MB-435, 48 h, read-out: Activity
SK-MEL-28 = assay: Cytotoxicity against human SK-MEL-28 cells assessed as growth inhibition after 48 hrs by SRB assay; details: SK-MEL-28, 48 h
HCC 2998 = assay: Growth inhibition of human HCC2998 cells assessed as cell growth at 0.1 uM after 48 hrs by SRB assay relative to control; details: HCC 2998, 48 h, read-out: Activity
SK-MEL-5 = assay: Growth inhibition of human SK-MEL-5 cells assessed as cell growth at 0.01 uM after 48 hrs by SRB assay relative to control; details: SK-MEL-5, 48 h, read-out: Activity
A549 = assay: Growth inhibition of human A549/ATCC cells assessed as cell growth at 100 uM after 48 hrs by SRB assay relative to control; details: A549, 48 h, read-out: Activity
U-251 [5] = assay: Growth inhibition of human U251 cells assessed as cell growth at 0.1 uM after 48 hrs by SRB assay relative to control; details: U-251, 48 h, read-out: Activity
OVCAR-5 = assay: Growth inhibition of human OVCAR5 cells assessed as cell growth at 10 uM after 48 hrs by SRB assay relative to control; details: OVCAR-5, 48 h, read-out: Activity
SK-OV-3 [6] = assay: Growth inhibition of human SKOV3 cells assessed as cell growth at 1 uM after 48 hrs by SRB assay relative to control; details: SK-OV-3, 48 h, read-out: Activity
SK-OV-3 [7] = assay: Growth inhibition of human SKOV3 cells assessed as cell growth at 10 uM after 48 hrs by SRB assay relative to control; details: SK-OV-3, 48 h, read-out: Activity
OVCAR-8 = assay: Growth inhibition of human OVCAR8 cells assessed as cell growth at 0.1 uM after 48 hrs by SRB assay relative to control; details: OVCAR-8, 48 h, read-out: Activity
RPMI-8226 = assay: Growth inhibition of human RPMI8226 cells assessed as cell growth at 10 uM after 48 hrs by SRB assay relative to control; details: RPMI-8226, 48 h, read-out: Activity
HOP-92 = assay: Growth inhibition of human HOP92 cells assessed as cell growth at 0.01 uM after 48 hrs by SRB assay relative to control; details: HOP-92, 48 h, read-out: Activity
MCF7 = assay: Growth inhibition of human MCF7 cells assessed as cell growth at 1 uM after 48 hrs by SRB assay relative to control; details: MCF7, 48 h, read-out: Activity
U-251 [8] = assay: Growth inhibition of human U251 cells assessed as cell growth at 100 uM after 48 hrs by SRB assay relative to control; details: U-251, 48 h, read-out: Activity
HCT-116 = assay: Growth inhibition of human HCT116 cells assessed as cell growth at 10 uM after 48 hrs by SRB assay relative to control; details: HCT-116, 48 h, read-out: Activity
NCI-H522 [9] = assay: Growth inhibition of human NCI-H522 cells assessed as cell growth at 10 uM after 48 hrs by SRB assay relative to control; details: NCI-H522, 48 h, read-out: Activity
RXF 393 = assay: Growth inhibition of human RXF393 cells assessed as cell growth at 0.1 uM after 48 hrs by SRB assay relative to control; details: RXF 393, 48 h, read-out: Activity
Malme-3M [10] = assay: Growth inhibition of human MALME-3M cells assessed as cell growth at 100 uM after 48 hrs by SRB assay relative to control; details: read-out: Activity
SK-MEL-2 [11] = assay: Growth inhibition of human SK-MEL-2 cells assessed as cell growth at 0.1 uM after 48 hrs by SRB assay relative to control; details: SK-MEL-2, 48 h, read-out: Activity
SW-620 = assay: Growth inhibition of human SW620 cells assessed as cell growth at 1 uM after 48 hrs by SRB assay relative to control; details: SW-620, 48 h, read-out: Activity
MDA-MB-468 = assay: Growth inhibition of human MDA-MB-468 cells assessed as cell growth at 10 uM after 48 hrs by SRB assay relative to control; details: MDA-MB-468, 48 h, read-out: Activity
NCI-H522 [12] = assay: Growth inhibition of human NCI-H522 cells assessed as cell growth at 0.01 uM after 48 hrs by SRB assay relative to control; details: NCI-H522, 48 h, read-out: Activity
CCRF-CEM = assay: Growth inhibition of human CCRF-CEM cells assessed as cell growth at 0.01 uM after 48 hrs by SRB assay relative to control; details: read-out: Activity

## COc1ccc2c(c1)CCc1n[nH]c(-c3cc(OC)c(OC)c(OC)c3)c1-2
BT-549; read-out: GI50
  GI50: < 0.01 µM
BT-549; read-out: LC50
  LC50 (50% lethal concentration): > 100 µM
BT-549; read-out: TGI
  TGI: 10.6 µM
BT-549; read-out: pGI50 (converted)
  GI50: < 0.01 µM
BT-549; read-out: pLC50 (converted)
  LC50 (50% lethal concentration): > 100 µM
BT-549; read-out: pTGI (converted)
  TGI: 10.7 µM
UACC-62
  growth at 0.01 µM: 23%
SF-539
  growth at 1 µM: -12%
T47D
  growth at 0.01 µM: 59%
MOLT-4 [1]
  growth at 0.1 µM: 35%
MOLT-4 [2]
  growth at 0.01 µM: 41%
HT-29
  growth at 0.01 µM: 5%
SK-MEL-2 [3]
  growth at 1 µM: 42%
Malme-3M [4]
  growth at 10 µM: 41%
SF-268
  growth at 1 µM: 29%
MDA-MB-435
  growth at 0.1 µM: -39%
SK-MEL-28; read-out: GI50
  GI50: 1.62 µM
SK-MEL-28; read-out: LC50
  LC50 (concentration killing 50% of cells): 68.8 µM
SK-MEL-28; read-out: TGI
  TGI: 21.7 µM
SK-MEL-28; read-out: pGI50 (converted)
  GI50: 1.62 µM
SK-MEL-28; read-out: pLC50 (converted)
  LC50 (concentration killing 50% of cells): 69.2 µM
SK-MEL-28; read-out: pTGI (converted)
  TGI: 21.9 µM
HCC 2998
  growth at 0.1 µM: 11%
SK-MEL-5
  growth at 0.01 µM: -6%
A549
  growth at 100 µM: -26%
U-251 [5]
  growth at 0.1 µM: 10%
OVCAR-5
  growth at 10 µM: 31%
SK-OV-3 [6]
  growth at 1 µM: -5%
SK-OV-3 [7]
  growth at 10 µM: -13%
OVCAR-8
  growth at 0.1 µM: 13%
RPMI-8226
  growth at 10 µM: 35%
HOP-92
  growth at 0.01 µM: 39%
MCF7
  growth at 1 µM: 12%
U-251 [8]
  growth at 100 µM: -72%
HCT-116
  growth at 10 µM: -15%
NCI-H522 [9]
  growth at 10 µM: -17%
RXF 393
  growth at 0.1 µM: -2%
Malme-3M [10]
  growth at 100 µM: -36%
SK-MEL-2 [11]
  growth at 0.1 µM: 40%
SW-620
  growth at 1 µM: 14%
MDA-MB-468
  growth at 10 µM: -5%
NCI-H522 [12]
  growth at 0.01 µM: -16%
CCRF-CEM
  growth at 0.01 µM: 38%
